Measured values published in patent publication US20130131161A1, “METHODS AND COMPOSITIONS FOR CARDIOVASCULAR DISEASES AND CONDITIONS” (priority 2009, published 2013).

Test system: Human umbilical vein endothelial cells (HUVECs)
Test: Comparison of LA-419 and ISDN: NO and ONOO− release from HUVECs measured with tandem electrochemical nanosensors (Example 1)
Assay type: cell-based
Conditions: for NO release (mean ± S.D.) / ONOO− release (mean ± S.D.): 500 nM, 12 hours, then CaI (1.0 μM); for decrease in NO release / increase in levels of ONOO− / decrease in the NO/ONOO− ratio: pretreatment 12 h
Method: Human umbilical vein endothelial cells (HUVECs) were isolated into primary cultures and purchased as proliferating cells from Clonetics (San Diego, Calif.). All cell culture donors were healthy, with no pregnancy or prenatal complications. The cultured cells were incubated in 95% air/5% CO2 at 37° C. and passage by an enzymatic (trypsin) procedure. The confluent cells (4 to 5×10^5 cells per 35-mm dish) were placed with minimum essential medium containing 3 mM L-arginine and 0.1 mM BH4 [(6R)-5,6,7,8-tetrahydrobiopterin]. Before the experiments, the cells (from second or third passage) were rinsed twice with Tyrode-HEPES buffer with 1.8 mM CaCl2. ISDN was obtained from Sigma-Aldrich.
Concurrent measurements of NO and ONOO^− were carried out with tandem electrochemical nanosensors combined into one working unit with a total diameter of 200-500 nm (FIG. 1). Their design was based on previously developed and well-characterized chemically modified carbon-fiber technology (Malinski and Taha, 1992; Lvovich and Scheeline, 1997). Each of the nanosensors was made by depositing a sensing material on the tip of a carbon fiber (length 4-5 μm, diameter 0.2-0.5 μm). The fibers were sealed with nonconductive epoxy and electrically connected to copper wires with conductive silver epoxy. A conductive film of polymeric nickel (II) tetrakis(3-methoxy-4-hydroxyphenyl)porphyrin for the NO-sensor and polymeric film of Mn (III) [2.2]paracyclophanylporphyrin was used for the ONOO^−-sensor.
A module of NO/ONOO^− nanosensors (diameter 1-2 μm) with a platinum wire (0.1 mm) counter electrode and saturated calomel reference electrode (SCE) were applied. Differential pulse voltammetry (DPV) and amperometry were performed with a computer-based Gamry VFP600 multichannel potentiostat. DPV was used to measure the basal NO and ONOO^− concentrations, and amperometry was used to measure changes in NO and ONOO^− concentrations from its basal level with time. The DPV current at the peak potential characteristic for NO oxidation (0.65 V) and ONOO^− reduction (−0.45 V) was directly proportional to the local concentrations of these compounds in the immediate vicinity of the sensor. Linear calibration curves (current vs. concentration) were constructed for each sensor from 10 nM to 3 μM before and after measurements with aliquots of NO and ONOO^− standard solutions, respectively. The detection limit of the sensors was 1.0 nM.
The quantification of each analyte (concentration in nM) was performed using a maximum current from amperograms and standard calibration curves. A reproducibility of measurements with nanosensors is relatively high (between 5-12%). […] The sensors were slowly raised 5±2 μm from the surface of a single endothelial cell. The eNOS agonist, calcium ionophore A23187 (CaI) as well as the different drugs were then added to the surrounding media at the cell surface with a nanoinjector that was also positioned by a computer controlled-micromanipulator.
The HUVEC preparation is stable over the course of these experiments with the cells remaining viable in culture for >24 hours. Under non-stimulating conditions, basal levels of NO release are very low (<30 nM). Measurement of NO release as a function of treatment was conducted in individual endothelial cells. Multiple measurements of NO release can be conducted on single cells following a brief refractory period. For robust statistical analysis, separate cells were used for each concentration and type of drug used in these analyses.

[1] = HUVECs from Non-Hispanic Whites

With `O=[N+]([O-])O[C@H]1CO[C@H]2[C@@H]1OC[C@H]2O[N+](=O)[O-]` [ISDN, isosorbide dinitrate] the “NO release (mean ± S.D.)” value (HUVECs from African Americans) was 218 ± 16 nM, the “ONOO− release (mean ± S.D.)” value (HUVECs from African Americans) was 552 ± 11 nM and the “NO release (mean ± S.D.)” value [1] was 343 ± 11 nM. The “ONOO− release (mean ± S.D.)” value [1] was 323 ± 9 nM, the “decrease in NO release” value (HUVECs from African Americans) was 12% and the “increase in levels of ONOO−” value (HUVECs from African Americans) was 18%. The “decrease in the NO/ONOO− ratio” value (HUVECs from African Americans, p<0.05) was 25%, the “decrease in NO release” value (HUVECs from non-Hispanic whites) was 11% and the “decrease in the NO/ONOO− ratio” value (HUVECs from non-Hispanic whites, p<0.01) was 23%. The “increase in levels of ONOO−” value (HUVECs from whites) was 16%.
